Experimental data from patent publication US10385024B2, “Compounds and methods for inhibiting NHE-mediated antiport in the treatment of disorders associated with fluid retention or salt overload and gastrointestinal tract disorders” (Ardelyx, Inc., priority 2012, dated 2019).

How the values were obtained:
[1] = target: T1, Rat NHE-3 (Rattus norvegicus, UniProt P26433); assay: Cell-based assay of NHE-3 activity (persistent inhibition, after washout); settings: OK cells with rat NHE-3 gene, 60 min incubation, recovery initiated 40 min after compound washout
T1 construct: expressed in transfected cells; host or cells: Opossum kidney (OK) cells (ATCC), transfected by electroporation
How it was run: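 OK cells transiently expressing rat NHE-3 were exposed to 0-30 μM compound in NaCl-HEPES pH 7.4 for 60 min, then washed free of drug before NH4Cl/BCECF-AM loading and acid-loading in Na+-free choline buffer. Na+-dependent pH recovery rates (mean of ≥2 replicates) gave pIC50.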

[2] = target: T1, Rat NHE-3; assay: Cell-based assay of NHE-3 activity (rat NHE-3 prompt inhibition); settings: OK cells with rat NHE-3 gene, compound present during pH recovery
How it was run: (§1)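 Opossum kidney cells electroporated with rat or human NHE-3, loaded with 5 μM BCECF-AM in NH4Cl-HEPES pH 7.4 for 30 min at RT, then acidified 10 min in Na+-free choline HEPES. Na+-dependent pH recovery rates from BCECF fluorescence, averaged over ≥2 replicates, gave pIC50.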

[3] = tested on: absorption of sodium from the intestinal lumen; assay: Inhibition of intestinal sodium absorption (urinary sodium and fecal form); assay type: in vivo, Sprague-Dawley rats; settings: rat; for response vs control in vivo at 3 mg/kg: 3 mg/kg oral gavage, urine 16 h post-dose, asterisks = significance vs vehicle (*P<0.05, **P<0.01, ***P<0.001), read-out: uNa (% of vehicle); for FFS: fecal form score, scale 1 (normal pellet) to 5 (liquid fecal streams), group average, 3 mg/kg oral, 16 h post-dose, vehicle = 1
Description: Urinary sodium concentration and fecal form were measured to assess the ability of selected example compounds to inhibit the absorption of sodium from the intestinal lumen. Eight-week old Sprague-Dawley rats were purchased from Charles River Laboratories (Hollister, Calif.), were housed 2 per cage, and acclimated for at least 3 days before study initiation. Animals were fed Harlan Teklad Global 2018 rodent chow (Indianapolis, Ind.) and water ad libitum throughout the study and maintained in a standard light/dark cycle of 6 AM to 6 PM. On the day of the study, between 4 PM and 5 PM, a group of rats (n=6) were dosed via oral gavage with test compound at the dosage indicated or vehicle (water) at a volume of 10 mL/kg. After dose administration animals were placed in individual metabolic cages where they were also fed the same chow in meal form and watered ad libitum. At 16 h post-dose, the urine samples were collected and fecal form was assessed by two independent observations. Fecal forms were scored according to a common scale associated with increasing fecal water to the wettest observation in the cage's collection funnel (1, normal pellet; 2, pellet adhering to sides of collection funnel due to moisture; 3, loss of normal pellet shape; 4, complete loss of shape with a blotting pattern; 5, liquid fecal streams evident). A rat's fecal form score (FFS) was determined by averaging both observational scores for all rats within a group (n=6). In every study the vehicle group average was 1. For urine samples, the volumes were determined gravimetrically and centrifuged at 3,600×g. The supernatants were diluted 100-fold in deionized Milli-Q water then filtered through a 0.2 μm GHP Pall AcroPrep filter plate (Pall Life Sciences, Ann Arbor, Mich.) prior to analysis by ion chromatography. Ten microliters of each filtered extract was injected onto a Dionex ICS-3000 ion chromatograph system (Dionex, Sunnyvale, Calif.). Cations were separated by an isocratic method using 25 mM methanesulfonic acid as the eluent on an IonPac CS12A 2 mm i.d.×250 mm, 8 μm particle size cation exchange column (Dionex). Sodium was quantified using standards prepared from a cation standard mix containing Li^+, Na^+, NH4^+, K^+, Mg^2+, and Ca^2+ (Dionex). The mean mass of sodium urinated for every group in the 16 h period was determined with the vehicle group usually urinating approximately 21 mg sodium. The urine Na (uNa) for rats in the test groups were expressed as a percentage of the vehicle mean and the means were compared to that of the vehicle group by utilizing a one-way analysis of variance coupled with a Dunnett's post hoc test.

[4] = target: T2, human NHE-3 (Homo sapiens, UniProt P48764); assay: Cell-based assay of NHE-3 activity (human NHE3 inhibition assay); settings: OK cells with human NHE-3 gene, BCECF pH dye, 0-30 μM test compound
T2 construct: expressed in transfected cells; host or cells: Opossum kidney (OK) cells (ATCC), transfected by electroporation
T2 sequence (P48764 26-834): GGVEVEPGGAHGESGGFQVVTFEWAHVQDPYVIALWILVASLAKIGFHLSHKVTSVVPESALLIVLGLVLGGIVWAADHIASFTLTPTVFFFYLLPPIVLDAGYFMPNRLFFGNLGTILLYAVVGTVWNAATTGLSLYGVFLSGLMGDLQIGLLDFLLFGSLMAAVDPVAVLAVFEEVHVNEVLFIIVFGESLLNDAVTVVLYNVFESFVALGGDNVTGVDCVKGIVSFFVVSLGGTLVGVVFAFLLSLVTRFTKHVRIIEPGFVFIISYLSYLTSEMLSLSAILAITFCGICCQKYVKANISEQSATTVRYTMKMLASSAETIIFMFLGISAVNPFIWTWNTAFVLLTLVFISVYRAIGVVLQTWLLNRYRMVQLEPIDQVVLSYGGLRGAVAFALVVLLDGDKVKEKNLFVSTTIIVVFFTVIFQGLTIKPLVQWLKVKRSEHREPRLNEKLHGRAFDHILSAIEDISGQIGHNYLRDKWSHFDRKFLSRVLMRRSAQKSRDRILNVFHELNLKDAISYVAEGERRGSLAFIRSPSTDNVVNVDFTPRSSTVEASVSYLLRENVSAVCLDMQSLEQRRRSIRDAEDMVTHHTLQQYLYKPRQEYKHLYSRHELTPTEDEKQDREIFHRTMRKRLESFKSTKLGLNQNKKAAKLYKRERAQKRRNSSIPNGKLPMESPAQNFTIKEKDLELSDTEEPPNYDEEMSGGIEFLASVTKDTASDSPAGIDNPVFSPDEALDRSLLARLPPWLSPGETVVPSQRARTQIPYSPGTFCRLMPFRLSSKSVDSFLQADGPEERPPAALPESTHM
How it was run: as §1

T1 sequence (P26433 29-831): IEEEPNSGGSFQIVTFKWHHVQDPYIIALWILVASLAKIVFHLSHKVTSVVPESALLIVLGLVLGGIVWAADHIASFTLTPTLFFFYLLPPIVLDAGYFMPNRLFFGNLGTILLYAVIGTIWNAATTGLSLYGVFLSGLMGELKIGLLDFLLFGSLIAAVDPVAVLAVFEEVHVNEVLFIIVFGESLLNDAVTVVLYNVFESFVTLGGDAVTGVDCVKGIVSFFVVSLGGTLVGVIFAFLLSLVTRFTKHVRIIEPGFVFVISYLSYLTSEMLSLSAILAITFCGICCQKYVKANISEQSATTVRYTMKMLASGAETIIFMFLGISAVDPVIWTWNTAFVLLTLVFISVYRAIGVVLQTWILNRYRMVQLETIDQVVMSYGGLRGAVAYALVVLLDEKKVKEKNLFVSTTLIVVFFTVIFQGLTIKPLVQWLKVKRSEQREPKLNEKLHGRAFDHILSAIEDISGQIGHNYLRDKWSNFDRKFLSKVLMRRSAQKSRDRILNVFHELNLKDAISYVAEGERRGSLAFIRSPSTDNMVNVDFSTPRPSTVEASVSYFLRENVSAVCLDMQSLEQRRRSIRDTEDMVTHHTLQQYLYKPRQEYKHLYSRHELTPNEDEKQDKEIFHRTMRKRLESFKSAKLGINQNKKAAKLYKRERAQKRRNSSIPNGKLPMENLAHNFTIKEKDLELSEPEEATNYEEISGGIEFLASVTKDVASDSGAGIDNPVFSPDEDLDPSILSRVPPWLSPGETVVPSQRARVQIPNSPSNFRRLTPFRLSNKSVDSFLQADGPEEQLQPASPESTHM

Compound	Rat NHE3 pIC50 (persistent) [1]	Rat NHE3 pIC50 (prompt) [2]	Human NHE3 pIC50 [4]	IC50 ([1]; read-out: Rat NHE3 pIC50 (persistent) (converted)) [nM]	IC50 ([2]; read-out: Rat NHE3 pIC50 (prompt) (converted)) [nM]	IC50 ([4]; read-out: Human NHE3 pIC50 (converted)) [nM]	response vs control in vivo at 3 mg/kg [3] [%]	FFS [3]
CN1Cc2c(Cl)cc(Cl)cc2C(c2cccc(S(=O)(=O)NCCOCCOCCNC(=O)CCC(CCC(=O)NCCOCCOCCNS(=O)(=O)c3cccc(C4CN(C)Cc5c(Cl)cc(Cl)cc54)c3)(CCC(=O)NCCOCCOCCNS(=O)(=O)c3cccc(C4CN(C)Cc5c(Cl)cc(Cl)cc54)c3)NC(=O)N(C)CC(O)C(O)C(O)C(O)CO)c2)C1 (stereo not drawn) [Example 29]	C (C NHE3 pIC50 > 7)	C (C NHE3 pIC50 > 7)	C (C NHE3 pIC50 > 7)	–	–	–	35 to 75	–
CN1Cc2c(Cl)cc(Cl)cc2[C@H](c2cccc(S(=O)(=O)NCCOCCOCCNC(=O)CCC(CCC(=O)NCCOCCOCCNS(=O)(=O)c3cccc([C@@H]4CN(C)Cc5c(Cl)cc(Cl)cc54)c3)(CCC(=O)NCCOCCOCCNS(=O)(=O)c3cccc([C@@H]4CN(C)Cc5c(Cl)cc(Cl)cc54)c3)NC(=O)Cn3ccnc3)c2)C1 [Example 30]	C (C NHE3 pIC50 > 7)	B (B NHE3 pIC50 5-7)	B (B NHE3 pIC50 5-7)	–	–	–	> 75	–
CC(O)C(NC(=O)NC(CCC(=O)NCCOCCOCCNS(=O)(=O)c1cccc(C2CN(C)Cc3c(Cl)cc(Cl)cc32)c1)(CCC(=O)NCCOCCOCCNS(=O)(=O)c1cccc(C2CN(C)Cc3c(Cl)cc(Cl)cc32)c1)CCC(=O)NCCOCCOCCNS(=O)(=O)c1cccc(C2CN(C)Cc3c(Cl)cc(Cl)cc32)c1)C(N)=O (stereo not drawn) [Example 31]	C (C NHE3 pIC50 > 7)	C (C NHE3 pIC50 > 7)	C (C NHE3 pIC50 > 7)	–	–	–	< 35	–
CN1Cc2c(Cl)cc(Cl)cc2[C@H](c2cccc(S(=O)(=O)NCCOCCOCCNC(=O)CCC(CCC(=O)NCCOCCOCCNS(=O)(=O)c3cccc([C@@H]4CN(C)Cc5c(Cl)cc(Cl)cc54)c3)(CCC(=O)NCCOCCOCCNS(=O)(=O)c3cccc([C@@H]4CN(C)Cc5c(Cl)cc(Cl)cc54)c3)NC(=O)NCP(=O)(O)O)c2)C1 [Example 32]	C (C NHE3 pIC50 > 7)	C (C NHE3 pIC50 > 7)	B (B NHE3 pIC50 5-7)	–	–	–	35 to 75	2
CN1Cc2c(Cl)cc(Cl)cc2[C@H](c2cccc(S(=O)(=O)NCCOCCOCCNC(=O)CCC(CCC(=O)NCCOCCOCCNS(=O)(=O)c3cccc([C@@H]4CN(C)Cc5c(Cl)cc(Cl)cc54)c3)(CCC(=O)NCCOCCOCCNS(=O)(=O)c3cccc([C@@H]4CN(C)Cc5c(Cl)cc(Cl)cc54)c3)NC(=O)N3CCN(CCOCCO)CC3)c2)C1 [Example 33]	C (C NHE3 pIC50 > 7)	C (C NHE3 pIC50 > 7)	C (C NHE3 pIC50 > 7)	–	–	–	< 35	2
CN1Cc2c(Cl)cc(Cl)cc2[C@H](c2cccc(S(=O)(=O)NCCOCCOCCNC(=O)CCC(CCC(=O)NCCOCCOCCNS(=O)(=O)c3cccc([C@@H]4CN(C)Cc5c(Cl)cc(Cl)cc54)c3)(CCC(=O)NCCOCCOCCNS(=O)(=O)c3cccc([C@@H]4CN(C)Cc5c(Cl)cc(Cl)cc54)c3)NC(=O)NC(CO)CO)c2)C1 [Example 34]	C (C NHE3 pIC50 > 7)	C (C NHE3 pIC50 > 7)	C (C NHE3 pIC50 > 7)	–	–	–	< 35	–

More lines, main results first:

Rat NHE3 pIC50 (persistent) [1]	Rat NHE3 pIC50 (prompt) [2]	Human NHE3 pIC50 [4]	IC50 ([1]; read-out: Rat NHE3 pIC50 (persistent) (converted)) [nM]	IC50 ([2]; read-out: Rat NHE3 pIC50 (prompt) (converted)) [nM]	IC50 ([4]; read-out: Human NHE3 pIC50 (converted)) [nM]	Compound	response vs control in vivo at 3 mg/kg [3] [%]	FFS [3]
C (C NHE3 pIC50 > 7)	B (B NHE3 pIC50 5-7)	C (C NHE3 pIC50 > 7)	–	–	–	CN1Cc2c(Cl)cc(Cl)cc2[C@H](c2cccc(S(=O)(=O)NCCOCCOCCNC(=O)CCC(CCC(=O)NCCOCCOCCNS(=O)(=O)c3cccc([C@@H]4CN(C)Cc5c(Cl)cc(Cl)cc54)c3)(CCC(=O)NCCOCCOCCNS(=O)(=O)c3cccc([C@@H]4CN(C)Cc5c(Cl)cc(Cl)cc54)c3)NC(=O)Cc3nnn[nH]3)c2)C1 [Example 38]	< 35	–
C (C NHE3 pIC50 > 7)	C (C NHE3 pIC50 > 7)	C (C NHE3 pIC50 > 7)	–	–	–	CN1Cc2c(Cl)cc(Cl)cc2[C@H](c2cccc(S(=O)(=O)NCCOCCOCCNC(=O)CCC(CCC(=O)NCCOCCOCCNS(=O)(=O)c3cccc([C@@H]4CN(C)Cc5c(Cl)cc(Cl)cc54)c3)(CCC(=O)NCCOCCOCCNS(=O)(=O)c3cccc([C@@H]4CN(C)Cc5c(Cl)cc(Cl)cc54)c3)NC(=O)N[C@@H](CO)C(=O)O)c2)C1 [Example 39]	< 35	–
C (C NHE3 pIC50 > 7)	B (B NHE3 pIC50 5-7)	C (C NHE3 pIC50 > 7)	–	–	–	CN1CCN(C(=O)NC(CCC(=O)NCCOCCOCCNS(=O)(=O)c2cccc([C@@H]3CN(C)Cc4c(Cl)cc(Cl)cc43)c2)(CCC(=O)NCCOCCOCCNS(=O)(=O)c2cccc([C@@H]3CN(C)Cc4c(Cl)cc(Cl)cc43)c2)CCC(=O)NCCOCCOCCNS(=O)(=O)c2cccc([C@@H]3CN(C)Cc4c(Cl)cc(Cl)cc43)c2)CC1 [Example 41]	< 35	–
–	–	–	< 100	100 to 10000	< 100	CN1Cc2c(Cl)cc(Cl)cc2[C@H](c2cccc(S(=O)(=O)NCCOCCOCCNC(=O)N(C)CCCN(CCCN(C)C(=O)NCCOCCOCCNS(=O)(=O)c3cccc([C@@H]4CN(C)Cc5c(Cl)cc(Cl)cc54)c3)CCCN(C)C(=O)NCCOCCOCCNS(=O)(=O)c3cccc([C@@H]4CN(C)Cc5c(Cl)cc(Cl)cc54)c3)c2)C1 [Example 47, (S)—N,N′-(15-(1-(3-((S)-6,8-dichloro-2-methyl-1,2,3,4-tetrahydroisoquinolin-4-yl)phenylsulfonamido)-11-methyl-10-oxo-3,6-dioxa-9,11-diazatetradecan-14-yl)-11,19-dimethyl-10,20-dioxo-3,6,24,27-tetraoxa-9,11,15,19,21-pentaazanonacosane-1,29-diyl)bis(3-((S)-6,8-dichloro-2-methyl-1,2,3,4-tetrahydroisoquinolin-4-yl)benzenesulfonamide)]	35 to 75	–
